Experiments:
Experiment in all cases: Cell proliferation WST-1 assay, single dose (Example 4)
Format in all cases: cell-based
Conditions in all cases: 100 μM, 48 hours
[1] = test system: Jurkat T-cell leukemia cells
Procedure, shortened: (§1)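 WST-1 absorbance at 450 nm (minus 650 nm background) after 48 h compound treatment; data expressed relative to DMSO-treated controls. Seeding ~5000 cells/well, 16-20 h recovery before dosing.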

[2] = test system: HeLa cervical carcinoma cells
Procedure, shortened: as §1

[3] = test system: HL-60 leukemic cells
Procedure, shortened: as §1

[4] = test system: RPMI-7951 melanoma cells
Procedure, shortened: as §1

[5] = test system: SK-MEL-28 melanoma cells
Procedure, shortened: as §1

[6] = test system: A375 melanoma cells
Procedure, shortened: as §1

Row | Compound | Cell Viability (% of Vehicle) Jurkat [1] | Cell Viability (% of Vehicle) HeLa [2] | Cell Viability (% of Vehicle) HL-60 [3] | Cell Viability (% of Vehicle) RPMI-7951 [4] | Cell Viability (% of Vehicle) SK-MEL-28 [5] | Cell Viability (% of Vehicle) A375 [6]
1 | CCOc1ccc(/C=C2\SC(=O)N(CCN(C)C)C2=O)cc1 [Compound 24a, (Z)-3-(2-(dimethylamino)ethyl)-5-(4-ethoxybenzylidene)thiazolidine-2,4-dione] | 95 ± 1 % of Vehicle | 90 ± 5 % of Vehicle | 110 ± 14 % of Vehicle | 130 ± 4 % of Vehicle | 101 ± 0.3 % of Vehicle | 115 ± 2 % of Vehicle
2 | CCOc1ccc(/C=C2\SC(=O)N(Cc3ccccn3)C2=O)cc1 [Compound 28j, (Z)-5-(4-ethoxybenzylidene)-3-(pyridin-2-ylmethyl)thiazolidine-2,4-dione] | 101 ± 7 % of Vehicle | 89 ± 5 % of Vehicle | 89 ± 31 % of Vehicle | 114 ± 5 % of Vehicle | 95 ± 3 % of Vehicle | 124 ± 6 % of Vehicle
3 | CCOc1ccc(/C=C2\SC(=O)N(CC(C)N)C2=O)cc1 (stereo not drawn) [Compound 22b, (Z)-3-(2-aminopropyl)-5-(4-ethoxybenzylidene)thiazolidine-2,4-dione] | 58 ± 10 % of Vehicle | 49 ± 7 % of Vehicle | 7.3 ± 3 % of Vehicle | 16 ± 1 % of Vehicle | 32 ± 4 % of Vehicle | 25 ± 4 % of Vehicle
4 | CCOc1ccc(/C=C2\SC(=O)N(CCNC(=O)OC)C2=O)cc1 [Compound 26a, (Z)-methyl (2-(5-(4-ethoxybenzylidene)-2,4-dioxothiazolidin-3-yl)ethyl)carbamate] | 97 ± 7 % of Vehicle | 84 ± 4 % of Vehicle | 104 ± 31 % of Vehicle | 102 ± 4 % of Vehicle | 88 ± 3 % of Vehicle | 96 ± 4 % of Vehicle
5 | CCOc1ccc(/C=C2\SC(=O)N(CCN(Cc3ccccc3)Cc3ccccc3)C2=O)cc1 [Compound 24b, (Z)-3-(2-(dibenzylamino)ethyl)-5-(4-ethoxybenzylidene)thiazolidine-2,4-dione] | 104 ± 2 % of Vehicle | 92 ± 9 % of Vehicle | 109 ± 24 % of Vehicle | 120 ± 3 % of Vehicle | 104 ± 4 % of Vehicle | 122 ± 7 % of Vehicle
6 | CCOc1ccc(/C=C/C(=O)NCCN)cc1 [Compound 20, (E)-N-(2-aminoethyl)-3-(4-ethoxyphenyl)acrylamide] | 89 ± 7 % of Vehicle | 94 ± 5 % of Vehicle | 59 ± 25 % of Vehicle | 93 ± 9 % of Vehicle | 83 ± 4 % of Vehicle | 81 ± 5 % of Vehicle
7 | CCOc1ccc(/C=C2\SC(=O)N(C[C@H](N)C(=O)OC)C2=O)cc1 [Compound 22d, (S,Z)-methyl 2-amino-3-(5-(4-ethoxybenzylidene)-2,4-dioxothiazolidin-3-yl)propanoate] | 100 ± 5 % of Vehicle | 87 ± 4 % of Vehicle | 25 ± 5 % of Vehicle | 1.8 ± 0.1 % of Vehicle | 33 ± 9 % of Vehicle | 41 ± 11 % of Vehicle
8 | CCOc1ccc(/C=C2\SC(=O)N(Cc3ccc(C#N)cc3)C2=O)cc1 [Compound 28m, (Z)-4-((5-(4-ethoxybenzylidene)-2,4-dioxothiazolidin-3-yl)methyl)benzonitrile] | 103 ± 11 % of Vehicle | 95 ± 3 % of Vehicle | 86 ± 37 % of Vehicle | 106 ± 8 % of Vehicle | 97 ± 7 % of Vehicle | 108 ± 3 % of Vehicle
9 | CCOc1ccc(CC2SC(=O)N(CCN)C2=O)cc1 (stereo not drawn) [Compound 6, 3-(2-aminoethyl)-5-(4-ethoxybenzyl)thiazolidine-2,4-dione] | 108 ± 10 % of Vehicle | 90 ± 4 % of Vehicle | 41 ± 17 % of Vehicle | 70 ± 5 % of Vehicle | 88 ± 3 % of Vehicle | 92 ± 6 % of Vehicle
10 | CCOc1ccc(/C=C2\SC(=S)N(CCN)C2=O)cc1 [Compound 9, (Z)-3-(2-aminoethyl)-5-(4-ethoxybenzylidene)-2-thioxothiazolidin-4-one] | 52 ± 4 % of Vehicle | 26 ± 6 % of Vehicle | 7.9 ± 3 % of Vehicle | 3.3 ± 2 % of Vehicle | 45 ± 7 % of Vehicle | 21 ± 10 % of Vehicle
11 | CCOc1ccc(/C=C2\SC(=O)N(Cc3ccncc3)C2=O)cc1 [Compound 28l, (Z)-5-(4-ethoxybenzylidene)-3-(pyridin-4-ylmethyl)thiazolidine-2,4-dione] | 96 ± 11 % of Vehicle | 81 ± 5 % of Vehicle | 82 ± 54 % of Vehicle | 102 ± 3 % of Vehicle | 79 ± 3 % of Vehicle | 105 ± 12 % of Vehicle
12 | CCOc1ccc(/C=C2\SC(=O)N(CC(=O)OC(C)(C)C)C2=O)cc1 [Compound 28g, (Z)-tert-butyl 2-(5-(4-ethoxybenzylidene)-2,4-dioxothiazolidin-3-yl)acetate] | 108 ± 3 % of Vehicle | 88 ± 7 % of Vehicle | 95 ± 18 % of Vehicle | 110 ± 3 % of Vehicle | 101 ± 2 % of Vehicle | 117 ± 7 % of Vehicle
13 | CCOc1ccc(/C=C2\SC(=O)N(Cc3ccccc3)C2=O)cc1 [Compound 28i, (Z)-3-benzyl-5-(4-ethoxybenzylidene)thiazolidine-2,4-dione] | 105 ± 4 % of Vehicle | 95 ± 4 % of Vehicle | 65 ± 1 % of Vehicle | 114 ± 20 % of Vehicle | 90 ± 3 % of Vehicle | 110 ± 4 % of Vehicle
14 | CCOc1ccc(/C=C2\SC(=O)N(CCNC(=O)OC(C)(C)C)C2=O)cc1 [Compound 25c, (Z)-tert-butyl (2-(5-(4-ethoxybenzylidene)-2,4-dioxothiazolidin-3-yl)ethyl)carbamate] | 92 ± 7 % of Vehicle | 81 ± 1 % of Vehicle | 31 ± 5 % of Vehicle | 62 ± 7 % of Vehicle | 73 ± 1 % of Vehicle | 84 ± 2 % of Vehicle
15 | NCCN1C(=O)S/C(=C\c2ccccc2OCc2ccccc2)C1=O [Compound 30k, (Z)-3-(2-aminoethyl)-5-(2-(benzyloxy)benzylidene)thiazolidine-2,4-dione] | 1.5 ± 0.1 % of Vehicle | 0.6 ± 0.1 % of Vehicle | 8.3 ± 3.4 % of Vehicle | 0.9 ± 0.1 % of Vehicle | 0.6 ± 0.04 % of Vehicle | 0.6 ± 0.03 % of Vehicle
16 | CCOc1ccc(/C=C2\SC(=O)N(CCNC(=O)OCc3ccccc3)C2=O)cc1 [Compound 26d, (Z)-benzyl (2-(5-(4-ethoxybenzylidene)-2,4-dioxothiazolidin-3-yl)ethyl)carbamate] | 112 ± 5 % of Vehicle | 98 ± 6 % of Vehicle | 85 ± 27 % of Vehicle | 54 ± 6 % of Vehicle | 97 ± 1 % of Vehicle | 103 ± 3 % of Vehicle
17 | CCOc1ccc(/C=C2\SC(=O)N(Cc3ccccc3C(=O)O)C2=O)cc1 [Compound 28s, (Z)-2-((5-(4-ethoxybenzylidene)-2,4-dioxothiazolidin-3-yl)methyl)benzoic acid] | 46 ± 1 % of Vehicle | 61 ± 4 % of Vehicle | 31 ± 15 % of Vehicle | 45 ± 8 % of Vehicle | 49 ± 8 % of Vehicle | 39 ± 1 % of Vehicle
18 | N#Cc1ccc(COc2ccccc2/C=C2\SC(=O)N(CCN)C2=O)cc1 [Compound 30l, (Z)-4-((2-((3-(2-aminoethyl)-2,4-dioxothiazolidin-5-ylidene)methyl)phenoxy)methyl)benzonitrile] | 6.7 ± 1 % of Vehicle | 8.0 ± 2 % of Vehicle | 5.7 ± 2 % of Vehicle | 0.6 ± 0.03 % of Vehicle | 0.5 ± 0.01 % of Vehicle | 0.5 ± 0.04 % of Vehicle

From US9115122B2, “Non-ATP dependent inhibitors of extracellular signal-regulated kinase (ERK)” (UNIVERSITY OF MARYLAND, BALTIMORE, priority 2012, dated 2015)
